Ends that are not written are not given here. * marks the point of attachment. Myristoyl = CCCCCCCCCCCCCC(=O)*

For experiment [1], the system named is p85/p110β dimers activated by Gβγ. In words: In vitro activation of p85/p110β dimers by Gβγ (lipid kinase activity). The experiment is classed as biochemical. To be noted: peptide 5-fold in excess of Gβγ; FIG. 5. The protocol:
FIG. 5. Percent stimulation of p85/p110β dimers incubated without or with Gβγ in the absence or presence of 5-1Old excess peptide. Pep=p110β peptide. Scram=scrambled peptide control.
(§1) FIG. 9A-9D. Peptide inhibitors of Gβγ -mediated p110β/p85 activation are specific for p85/p110β. (9A) Myristoylated p110β peptides or SIGK peptide were preincubated with biotinylated Gβγ or 5 min, followed by addition of phage particles displaying the SIGK peptide, After a 1 h incubation at room temperature, Anti-M-13 phase monoclonal antibody was added followed by addition of Streptavidin coated Alphascreen donor beads and protein A coated Alphascreen acceptor beads. After a 2 h incubation, the Alphascreen signal was read on a Perkin Elmer Envision Multilabel Plate reader. […] Bound proteins were analyzed by western blot. […] The cells were fixed and the number of GFP punctae per cell was counted using a Nikon Eclipse 400 microscope with 60× 1.4 N.A. optics. […]

Experiment [2] has as its system Gβγ activation of Akt (pT308-Akt) in NIH3T3 cells. In words: pT308-Akt blotting in NIH3T3 cells transfected with Gβγ. To be noted: for Gβγ activation of Akt (pT308-Akt): myristoylated vs TAT-tagged vs unmodified peptide, FIG. 6B. The experiment is classed as cell-based. The protocol:
FIG. 6A-6B. (6A) NIH3T3 cells were transfected without or with Gβγ and incubated with scrambled (control) or p110β peptide. pT308-Akt was measured by blotting. (6B) Cell transfected as above were incubated with myristoylated peptide, TAT-tagged peptide, or unmodified peptide. pT308-Akt was measured by blotting.
(§2) To test the possibility that small molecules targeting the p110β-Gβγ interface could be used as therapeutics, a peptide was designed derived from the Gβγ-binding loop in p110β. having the sequence […] (SEQ ID NO:6) a scrambled version of the peptide serves as a negative control. […] The test whether the peptide could be efficacious in vivo, we created a cell permeable myristylated version of the peptide. The peptide blocked activation of Akt in cells transfected with Gβγ (FIG. 6A); the peptide's inhibitory activity required its entry into the cells, since both myristoylated and TAT-tagged peptide inhibited Gβγ activation of Akt, whereas unlabeled peptide had no effect (FIG. 6B). The myristoylated peptide blocked the formation of colonies in soft agar (FIG. 7A) and the formation of foci (FIG. 7B), both measures of transformation, in NIH3T3 cells transfected with p85/p110β.

In the next experiment the target is T1, p110β binding to Rab5 (Homo sapiens, UniProt P42338).
T1 construct: expressed in transfected cells; host or cells: HEK293T (p85α and p110β)
In words: p110β binding to immobilized GST-Rab5 (pull-down from HEK293T lysates). To be noted: FIG. 9E. The protocol: as §1

The subject of a further experiment is Gβγ. In words: Alphascreen competition with phage-displayed SIGK peptide for binding to biotinylated Gβγ. To be noted: FIG. 9A. The protocol: as §1
For orientation: In Alpha technology, singlet oxygen from a donor bead excites a nearby acceptor bead.

The test system of experiment [3] is NIH3T3 cells transfected with p85/p110β. In words: Foci formation. In kind it is cell-based. To be noted: 30 μM peptide; foci measured after 2 weeks; FIG. 7B. The protocol:
(§3) FIG. 7A-7B. (7A). NIH3T3 cells were transfected without or with p85/p110β and incubated without or with 30 μM p110β peptide or scrambled control peptide. Colony formation in soft agar by cells transfected and treated with peptide as above. (7B). Foci were measured after 2 weeks.
as §2

Experiment [4] deals with HEK293A cells expressing GFP-LC3. Kind of experiment: p110β-dependent induction of autophagy, GFP-LC3 punctae in HEK293A cells. To be noted: PBS containing 100 nM rapamycin, 2 h; FIG. 9F. The experiment is classed as cell-based. The protocol:
as §1

Experiment [5] relates to PC3 prostate cancer cells. In words: PC-3 cell proliferation, MTS assay. The experiment is classed as cell-based. To be noted: 30 μM peptide; FIG. 10A. The protocol: (§4) FIG. 10A-10C. Inhibition of prostate cancer cell proliferation and chemotaxis: (A) Proliferation of PC-3 cells was measured by the MTS assay in the absence or presence of 30 μM myristoylated p110β-derived peptide or scrambled peptide. (B) Proliferation assays were performed on two PTEN-null endometrial cancer cell lines (AN3CA and RL95-2) and one PTEN positive endometrial cell line (KLE) grown in the absence or presence of myristoylated p110β-derived peptide or scrambled peptide. (C) PC-3 cells chemotaxis toward 10% […] in the absence or presence of 20 μM p110β-derived peptide or scrambled peptide was measured in Boyden chambers.
(§5) Finally, the peptide was evaluated for effects on the growth of PC3 prostate cancer cells, which are known to require p110β for growth. […] Importantly, published studies have shown that kinase-dead p110β can rescue cell growth in cell lines where proliferation is inhibited by p110β knockout. Since currently available p110β inhibitors target the active site of p110β and act by inhibiting its kinase activity, they would not be expected to suppress the growth of cells that depend on p110β for growth. In contrast, the p110β peptide described here inhibits p110β by a distinct mechanism, and is likely to be more efficacious at suppressing the growth of p110β-dependent prostate cancer cells than active site inhibitors.
On the technique in general: Tetrazolium dyes change colour on reduction, which living cells bring about.

In another experiment the test system is Class IB PI3K p101/p110γ. In words: Gβγ-dependent activation of p101/p110γ, pT308-Akt western blot in HEK293E cells. In kind it is cell-based. To be noted: FIG. 9C. The protocol: as §1
On the technique in general: A western blot detects proteins with antibodies after separation by electrophoresis.

Another experiment relates to PC3 cells. Kind of experiment: PC-3 chemotaxis in Boyden chambers. In kind it is cell-based. To be noted: 20 μM peptide; toward 10% PBS; FIG. 10C. The protocol:
as §4, §5

For experiment [6], the system named is NIH3T3 cells transfected with p85/p110β. In words: Colony formation in soft agar. The experiment is classed as cell-based. To be noted: 30 μM peptide; FIG. 7A. The protocol:
as §3, §2

For experiment [7], the system named is recombinant adenylyl cyclase. Kind of experiment: Synergistic activation of adenylyl cyclase by Gβγ and Gαs in Sf9 cell membranes. To be noted: 30 μM peptide; 20 nM Gsα, 20 nM Gβγ; FIG. 9D. In kind it is biochemical.
The subject of experiment [8] is NIH3T3 cells transfected with p110β/p85. Kind of experiment: Wound healing (wound closure) migration assay. The experiment is classed as cell-based. To be noted: 30 μM peptide; wound closure after 24h; FIG. 8. The procedure:
FIG. 8. NIH3T3 cells were transfected without or with p85/p110β. Confluent monolayers were scratched with a pipette tip, and wound closure after 24h was measured in the absence or presence of 30 μM p110β peptide or scrambled control peptide
as §2

A further experiment concerns p110β. In words: p110β expression in peptide-treated transfected cells. The experiment is classed as cell-based. To be noted: FIG. 7. The protocol: as §3

T1 sequence (P42338 whole entry): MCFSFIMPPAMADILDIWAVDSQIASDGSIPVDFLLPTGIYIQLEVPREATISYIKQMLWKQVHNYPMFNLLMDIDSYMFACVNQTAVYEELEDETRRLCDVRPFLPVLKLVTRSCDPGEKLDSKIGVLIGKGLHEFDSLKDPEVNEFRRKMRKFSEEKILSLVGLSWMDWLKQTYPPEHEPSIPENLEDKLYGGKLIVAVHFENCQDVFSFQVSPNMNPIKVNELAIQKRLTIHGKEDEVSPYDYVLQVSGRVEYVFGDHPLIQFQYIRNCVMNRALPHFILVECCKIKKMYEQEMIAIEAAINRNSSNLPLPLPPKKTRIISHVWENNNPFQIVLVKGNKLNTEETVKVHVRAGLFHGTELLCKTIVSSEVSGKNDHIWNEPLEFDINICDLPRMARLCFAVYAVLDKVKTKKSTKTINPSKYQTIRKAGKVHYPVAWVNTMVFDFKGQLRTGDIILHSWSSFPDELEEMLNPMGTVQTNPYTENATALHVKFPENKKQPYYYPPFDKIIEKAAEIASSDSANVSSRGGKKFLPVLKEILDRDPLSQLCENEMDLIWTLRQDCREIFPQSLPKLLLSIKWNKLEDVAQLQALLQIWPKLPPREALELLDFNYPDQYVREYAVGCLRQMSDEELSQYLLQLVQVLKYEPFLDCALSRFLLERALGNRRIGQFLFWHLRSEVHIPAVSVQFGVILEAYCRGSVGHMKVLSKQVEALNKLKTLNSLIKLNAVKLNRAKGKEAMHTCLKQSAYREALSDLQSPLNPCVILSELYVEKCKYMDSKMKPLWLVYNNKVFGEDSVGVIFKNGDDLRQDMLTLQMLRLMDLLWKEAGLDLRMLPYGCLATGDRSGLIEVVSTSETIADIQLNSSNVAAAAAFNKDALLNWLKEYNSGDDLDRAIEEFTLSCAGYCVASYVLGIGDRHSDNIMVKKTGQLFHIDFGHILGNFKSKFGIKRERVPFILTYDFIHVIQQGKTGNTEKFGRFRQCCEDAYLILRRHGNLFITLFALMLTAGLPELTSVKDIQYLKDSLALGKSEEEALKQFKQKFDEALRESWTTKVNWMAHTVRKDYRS

In the case of “KAAEIASSDSANVSSRGGKKFLPV (SEQ ID NO:6) [peptide]”, the “activation of p110β by Gβγ” value in experiment [1] is reported as “markedly reduces”. Moreover, the “Gβγ activation of Akt (pT308-Akt)” value in [2] is listed as “no effect”.
Turning to “myristoylated peptide: cell permeable myristylated version of the p110β peptide KAAEIASSDSANVSSRGGKKFLPV (SEQ ID NO:6) (Myristoyl-KAAEIASSDSANVSSRGGKKFLPV)”, the “p110β binding to Rab5” value with p110β binding to Rab5 is “no effect”. Moreover, the “competition with the binding to Gβγ of SIGK peptide” value in the experiment on Gβγ is “did not compete”. For the same substance, in experiment [3], the formation of foci result is reported as “blocked”. For the same substance, the “p110β-dependent induction of autophagy” value in experiment [4] is reported as “no effect”. Moreover, the “PC3 cells number (growth)” value in [5] is listed as “caused a decrease”. For the same substance, the “Gβγ-dependent activation of the Class IB PI3K p101/p110γ” value in the experiment on Class IB PI3K p101/p110γ is on record as “no effect”. In addition, in the experiment on PC3 cells, the “PC3 cells chemotaxis toward serum” value is reported as “inhibited”. Moreover, the “formation of colonies in soft agar” value in experiment [6] is reported as “blocked”. For the same substance, in experiment [7], the “synergistic activation of adenylyl cyclase by Gβγ and Gαs” value is on record as “no effect”. Moreover, the “enhanced migration in a wound healing assay” value in experiment [8] is “blocked”. Further, the “activation of Akt in cells transfected with Gβγ (pT308-Akt)” value in [2] (NIH3T3 cells, FIG. 6A) is listed as “blocked”. Also, the “Gβγ activation of Akt (pT308-Akt)” value in experiment [2] is listed as “inhibited”. Further, in the experiment with p110β, the p110β expression result was “did not reduce”.

Source of the values: US20140113869A1, “Gbetagamma BINDING SITE ON THE PIK3CB GENE PRODUCT AND METHODS OF USE” (Albert Einstein College of Medicine of Yeshiva University, priority 2011, published 2014).
